Measured values taken from patent US9801373B2, “Compounds for alleviating phosphate starvation symptoms in plants” (Commissariat a l'Energie Atomique et aux Energies …, priority 2012, dated 2017).
Values joined by “and” are separate entries in the source; they are usually repeats but may differ in a detail not shown here. Equal values may be shown once. “Also recorded” adds a separate entry of the source.

Assays:
Format in all cases: in vivo, Arabidopsis thaliana
PHT1 genes (PHT1;4) = test: qPCR of PHT1 transcript level on root mRNA
Method: (§1) Plant RNA was extracted with the RNeasy kit (QIAGEN, France). For transcriptome data, RNA were analysed by the CATMA technology (Complete Arabidopsis Transcriptome Microarray). For qPCR, poly(dT) cDNA were prepared from 500 ng total RNA with Superscript III reverse transcriptase (Invitrogen, France) and analysed on a LightCycler 480 apparatus (Roche Diagnostics, France) with the SYBR Green I Master kit (Roche Diagnostics, France) according to the manufacturer's instructions. Targets were quantified with specific primer pairs designed with Primer3 website (http://frodo.wi.mit.edu/primer3/) (see Table II below). Biological triplicates were performed for all experiments. Expression levels were normalized using At2g16600, At3g04120, At1g35160 and At1g32050 genes.

[1] = tested on: genes regulated by Pi starvation; test: Global transcriptomic analysis (CATMA) of roots
Method: as §1
To investigate on a wider scale the putative Phosphatin1 effect, a transcriptional analysis of the global genome was performed using the CATMA technology (http://www.catma.org/, URGV, France). It was compared transcript expression in roots of 14-days-old plantlets, grown in −Pi, −Pi+PTN1 or +Pi.
Table III: Comparison of PTN1 treatment and phosphate supply on global transcriptomic analysis. For this analysis, 14-days-old WT root samples of plants grown on −Pi, −Pi+PTN1 (40 μM) and +Pi were used. Data are expressed as ratio values between +Pi and −Pi or −Pi+PTN1 and −Pi respectively.

Pi uptake capacity = test: Phosphate uptake experiments (33PO4); settings: −Pi+PTN1 vs −Pi, 7-day-old plantlets, FIG. 3 (B)
Method: Phosphate uptake experiments were performed as previously described by Narang et al. (2000). 24 seedlings per conditions were incubated separately in a phosphate incubation solution containing ^33PO4 (5 mM MES, 0.1 mM CaCl2, 20 μM KH2PO4, 0.15 μCi/ml ^33PO4) for 2 h. After incubation in the uptake solution, plantlets were transferred to a chilled desorption medium (5 mM MES, 0.1 mM CaCl2, 1 mM KH2PO4) for 2 h at 4° C. Then, the seedlings were dried in scintillation vials at 60° C. overnight. An amount of 2 ml of scintillation cocktail (InstaGel, PerkinElmer, Wellesley, Mass., USA) was added and the radioactivity was measured with a scintillation analyzer (TRICARB, Packard instrument company). The amount of phosphate absorbed during the experiment was calculated and normalized per cm of root.

[2] = Total phosphorus content by ICP; settings: FIG. 3 (C)
Method: For the quantification of ions content, 50 mg of dry weight of each sample were mineralized in 14% HNO3 using a MarsX microwave system (CEM) for the determination of macro- and microelements by inductively coupled plasma optical emission spectrometry (ICP OES Vista MPX, Varian). Biological triplicates were performed for all experiments.

cycB1::GUS = test: Cell cycle marker cycB1::GUS in root tip; settings: 40 μM, −Pi seedlings, FIG. 7 (B)
Method: The GUS activity was detected as previously described by Jefferson et al. (1987), using a GUS staining solution containing 50 mM sodium phosphate buffer pH 7.0; 0.01% Triton X-100, 1 mM K3Fe(CN)6, 1 mM K4Fe(CN)6, 1 mg/ml 5-bromo-4-chloro-3-indolyl B-D-glucuronide (X-Gluc). For cycB1::GUS staining, plants were incubated 6 hours at 37° C.

[3] = tested on: lpr1, lpr2 and lpi mutants; test: Primary root growth of mutants with reduced root sensitivity to Pi starvation; settings: 7-days-old plants, PTN1 40 μM, FIG. 8
From the text: (§2) A “chemical genetics” approach has been carried out to isolate compounds that inhibit the phosphate (Pi) response in Arabidopsis thaliana. Compounds were screened for their ability to inhibit the expression of a phosphate starvation marker, namely the high affinity Pi transporter PHT1,4 gene. For the screening, the A. thaliana pht1;4-1 line (ecotype Wassilewskija) was chosen (Misson et al., 2004). It contains a T-DNA construct inserted into Pht1;4 gene creating a transcriptional fusion with a GUS reporter gene. For phenotypic analyses, A. thaliana Columbia and various lines derived from this ecotype were used. They are either transgenic lines expressing reporter gene as cycB1::GUS (Colón Carmona et al., 1999), MGD3::LUC, PHT1;4::LUC, At1g73010::LUC or various mutants affecting root response to low Pi such as: pdr2 (Ticconi et al., 2004), lpr1, lpr2 (Svistoonoff et al., 2007), lpi1, lpi2 and lpi3 (Sanchez-Calderon et al., 2006).
(§3) In the Pi deficient medium, NaCl (0.5 mM) was used to replace the equivalent amount of sodium provided by NaH2PO4. For controls of the effects of the compounds, 1% of DMSO (Dimethyl sulfoxid, SIGMA, 472301), solvent for the tested compounds, was added. […] Root architecture and aerial part area were quantified using program ImageJ.

pdr2 and phr1 mutants = test: Primary root growth of pdr2 and phr1 mutants; settings: 40 μM, 9 days after germination, FIG. 7 (E)
From the text: as §2, §3

Col-0 plants = test: Shoot (rosette) area after 28 days; settings: four weeks on −Pi medium, FIG. 10 (A), (B)
Method: In the Pi deficient medium, NaCl (0.5 mM) was used to replace the equivalent amount of sodium provided by NaH2PO4. For controls of the effects of the compounds, 1% of DMSO (Dimethyl sulfoxid, SIGMA, 472301), solvent for the tested compounds, was added. After 2 days at 4° C., the plates were placed in a vertical position and plants were grown in a culture chamber under a 16 h light/8 h dark regime (24/21° C., 150 μE m^−2s^−1). For 4 weeks culture, large plates (24×24 cm) were placed in a horizontal position. Root architecture and aerial part area were quantified using program ImageJ.

[4] = tested on: PHT1;4, PHT1;8, MGD3, PLDz2, SQD2, SPX1; test: qPCR of Pi starvation regulated genes in lpr1 mutant; settings: 14 days-old plants, FIG. 12
Method: as §1

[5] = 14-days-old roots, −Pi+PTN1 40 μM vs −Pi
[6] = gene classes of Thibaud et al. (2010)

O=c1c(Sc2ccc(Cl)cc2)c(Sc2ccc(Cl)cc2)c1=O [PTN1]
reduction of the impact of Pi starvation on the level of induction of PHT1 transcripts (PHT1 genes (PHT1;4); 40 μM, roots, 7-day-old plantlets, FIG. 3 (A)): at least 50% | efficiency on PHT1;4 relative to PTN2 (PHT1 genes (PHT1;4); FIG. 2 (B)): twice more efficient than PTN2 | effect on PHT1;4 transcript level (PHT1 genes (PHT1;4); qPCR on root mRNA, FIG. 2 (B)): dose dependant manner | genes de-regulated in an opposite way compared with +Pi treatment ([1]; 40 μM, 14-days-old roots): around 4% | number of the 279 genes induced +Pi/−Pi also induced by PTN1 ([1]; 40 μM, 14-days-old roots): 115 genes | number of the 279 genes induced +Pi/−Pi repressed by PTN1 ([1]; 40 μM, 14-days-old roots): 11 genes | number of the 783 genes repressed +Pi/−Pi also repressed by PTN1 ([1]; 40 μM, 14-days-old roots): 316 genes | number of the 783 genes repressed +Pi/−Pi induced by PTN1 ([1]; 40 μM, 14-days-old roots): 30 genes | percentage of the 279 genes induced +Pi/−Pi also induced by PTN1 ([1]; 40 μM, 14-days-old roots): 41% and 41.2% | percentage of the 279 genes induced +Pi/−Pi repressed by PTN1 ([1]; 40 μM, 14-days-old roots): 3.9% | percentage of the 783 genes repressed +Pi/−Pi also repressed by PTN1 ([1]; 40 μM, 14-days-old roots): 40% and 40.3% | percentage of the 783 genes repressed +Pi/−Pi induced by PTN1 ([1]; 40 μM, 14-days-old roots): 3.8% | number of genes induced vs −Pi [1, 5]: 1001 genes | number of genes repressed vs −Pi [1, 5]: 1666 genes | number of genes modulated vs −Pi ([1]; 14-days-old roots, −Pi+PTN1 40 μM vs −Pi, more than two fold change, Bonferroni <0.05): 2667 genes | local genes repressed by Pi also repressed by PTN1 [1, 6]: 45% | systemic genes induced by Pi also regulated by PTN1 in the same direction [1, 6]: 55% | systemic genes repressed by Pi also regulated by PTN1 in the same direction [1, 6]: 65% | expression of PHT1;5 and PHT1;8 ([1]; transcriptomic analysis): down regulation | expression of lipid conversion genes including PLDζ2 and MGD3 ([1]; transcriptomic analysis): down regulated | reduction of Pi uptake capacity (Pi uptake capacity): 25% | phosphorous amount vs −Pi control, leaves [2]: +40% | phosphorous amount vs −Pi control, shoot [2]: +90% | CycB1 expression in root tip (cycB1::GUS): expressed in the root tip of −Pi seedlings but there were fewer stained cells than in the +Pi control | primary root growth of lpr1 or lpi mutants [3]: no additive effect; also recorded: did not impact the primary root growth | root growth of pdr2 mutant (pdr2 and phr1 mutants): substantially reverted the root growth defect | root growth restriction of phr1 mutant imposed by −Pi (pdr2 and phr1 mutants): partially alleviated | rosette area (leaf growth) vs −Pi (Col-0 plants): +50% | expression of PHT1;4, PHT1;8, MGD3, PLDz2, SQD2, SPX1 in lpr1 [4]: repressed the expression of these genes in lpr1 to a similar level as observed in the WT
